We go through four compounds from patent publication US6815577B1, “Method of hybrid seed production using conditional female sterility” (Syngenta Participations AG, priority 1997, dated 2004).

Data set [1] deals with transgenic plants expressing N-acetyl-L-ornithine deacetylase gene in tapetal cells. The conditions noted are these: Kriete et al. 1996; EP 531,716; cited from earlier work.
Data set [2] relates to transgenic plants expressing bacterial cytochrome P450 gene in tapetal cells. The conditions noted are these: WO 91/03561; O'Keefe et al. 1994; cited from earlier work.
In data set [3] the test system is plants transformed with pFA200 or pSH74 or p19arg. Description: Acetyl-PPT treatment of plants conferring conditional female sterility. It counts as in vivo. The conditions noted are these: T1 plants with pFA200 or pSH74 or p19arg, treated during the growing stages; untreated plants fully fertile. As for the experimental part:
(§1) Seed from the T1 generation from plants transformed with pFA200 or pSH74 or p19arg (conferring conditional female sterility) and plants transformed with pMA200 or pSH68 or pZmgarg (conferring conditional male sterility) are planted in soil. Once plantlets have grown to a sufficient size, leaf tissue is analyzed by PCR for the presence of the argE transgene. PCR positive plants are transferred to the greenhouse. These plants are fully fertile. A subset of the plants containing pFA200 or pSH74 or p19arg and a subset containing pMA200 or pSH68 or pZmarg are treated with the protoxin acetyl-PPT during the growing stages. […] The untreated plants transformed with pFA200 or pSH74 or p19arg and pMA200 or pSH68 or pZmgarg are fully fertile.

Data set [4] has as its system conditional male sterile plants (transformed with pGK73). As to the kind of experiment: Acetyl-PPT treatment of conditional male sterile tobacco plants. The data set is classed as in vivo. The conditions noted are these: T1 tobacco, pGK73 (TA29-argE), treated during the growing stages; untreated plants remain fully fertile. From the text:
Tobacco leaf discs are also transformed with pGK73, containing an expression cassette of the argE gene under the control of the TA29 promoter (Kriete et al., Plant J. 9:809-818 (1996)) as described in Horsch et al., Science 227:1229-1231 (1985). The presence of the integrated transgenes are confirmed by PCR. Northern analysis of RNA made from anthers is used to confirm tissue-specific expression of the argE gene in the transgenic plants. These plants are self-fertile and have the phenotype of conditional male sterility. Seed of the T1 generation is collected after self-pollination.
Seed of the T1 generation from both conditional female sterile plants (transformed with pFA100) and conditional male sterile plants (transformed with pGK73) are planted in soil. Once plantlets have grown to a sufficient size, leaf tissue is analyzed by PCR for the presence of the argE transgene. PCR positive plants are transferred to the greenhouse. These plants are fully fertile in the absence of exogenously-applied protoxin. A subset of the conditional female sterile plants and a subset of the conditional male sterile plants are treated with the protoxin acetyl-PPT during the growing stages. […] The untreated plants remain fully fertile. Pollen from the treated female sterile plants is collected and used to pollinate the pistils of treated male sterile plants, which are the female parent plants. […]

The subject of data set [5] is plants transformed with pMA200 or pSH68 or pZmgarg. Description: Acetyl-PPT treatment of plants conferring conditional male sterility. To be noted: T1 plants with pMA200 or pSH68 or pZmgarg, treated during the growing stages; untreated plants fully fertile. The data set is classed as in vivo. The protocol: as §1
Data set [6] has as its system conditional female sterile plants (transformed with pFA100). As to the kind of experiment: Acetyl-PPT treatment of conditional female sterile tobacco plants. To be noted: T1 tobacco, pFA100 (Stig1-argE), treated during the growing stages; untreated plants remain fully fertile. The data set is classed as in vivo. From the text:
Plasmid pFA100 is constructed in a manner similar to pSH58, above, except that the argE gene (SEQ ID NO:3) replaces the GUS gene in Stig1-GUS (Goldman et al., EMBO J. 13:2976-2984 (1994)) in the correct translational reading frame using appropriate restriction enzymes. The STIG1-argE fusion is then ligated into a vector such as pCIB200 containing T-DNA borders, 3′ termination sequences and a functional plant selectable marker such as kanamycin resistance. The Stig1 promoter is a female-preferential promoter.
Tobacco leaf discs are transformed as described in Horsch et al., Science 227:1229-1231 (1985) with pSH58. The presence of the integrated transgenes is confirmed by PCR. Northern analysis of RNA made from female tissue is used to confirm tissue-specific expression of the argE gene in the transgenic plants. These plants are self-fertile and have the phenotype of conditional female sterility. T1 seed is collected after self-pollination. The female conditional transgene in pFA100 is also introduced into tobacco using similar procedures.
Seed of the T1 generation from both conditional female sterile plants (transformed with pFA100) and conditional male sterile plants (transformed with pGK73) are planted in soil. Once plantlets have grown to a sufficient size, leaf tissue is analyzed by PCR for the presence of the argE transgene. PCR positive plants are transferred to the greenhouse. […]

Data set [7] concerns transgenic plants expressing phosphonate monoester hydrolase gene in tapetal cells. To be noted: Dotson et al. 1996; cited from earlier work.

As to `CC(=O)N[C@@H](CCP(C)(=O)O)C(=O)O` [N-acetyl-L-phosphinothricin], the “male fertility after protoxin treatment” value in data set [1] was “rendered male sterile”.

For `COc1cc(OC)nc(NC(=O)NS(=O)(=O)c2cccc3c2S(=O)(=O)N(C(C)C)C3)n1` [R7402, 2-methylethyl-2,2-dihydro-N-[(4,6-dimethoxypyrimidin-2-yl)aminocarbonyl]-1,2-benzoiaothiazole-7-sulfonamide-1,1-dioxide], the “male fertility after protoxin treatment” value in data set [2] is reported as “rendered male sterile”.

`CC(=O)NC(CCP(C)(=O)O)C(=O)O` (stereo not shown) [acetyl-PPT, N-acetyl phosphinothricin]: the “fertility of treated plants (female reproductive structures)” value in data set [3] is reported as “are female sterile”. Besides, in data set [4], the “fertility of treated conditional male sterile plants” value is recorded as “become male sterile”. The “fertility of treated plants (male reproductive structures)” value in data set [5] was “are male sterile”. For the same compound, in data set [6], the “fertility of treated conditional female sterile plants” value was “become female sterile”.

In the case of `O=C(O)CNCP(=O)(O)OCC(O)CO` (stereo not shown) [glycerol glyphosate, glyceryl glyphosate], the “male fertility after protoxin treatment” value in data set [7] is “rendered male sterile”.
